Results published in patent publication US9156845B2, “4-(substituted amino)-7H-pyrrolo[2,3-d] pyrimidines as LRRK2 inhibitors” (Pfizer Inc., priority 2012, dated 2015).
Read-outs that look alike come from different tables or passages of the source.

What was measured:
[1] = target: GST-tagged truncated LRRK2 (Homo sapiens (Human), UniProt Q5S007); experiment: LRRK2 Lantha Screen kinase assay; type: biochemical; settings: geometric mean of 2-5 determinations unless otherwise indicated (a: >=6 determinations; b: single determination); read-out: LRRK2 WT IC50
AKT1 = AKT1 (Homo sapiens (Human), UniProt P31749); experiment: ActivX kinase probe assay (human PBMC); type: binding; settings: AKT1, read-out: percent inhibition
BTK = BTK (Homo sapiens (Human), UniProt Q06187); experiment: ActivX kinase probe assay (human PBMC); type: binding; settings: BTK, read-out: percent inhibition
DNAPK = DNAPK (Homo sapiens (Human), UniProt P78527); experiment: ActivX kinase probe assay (human PBMC); type: binding; settings: DNAPK, read-out: percent inhibition
Erk5 = Erk5 (Homo sapiens (Human), UniProt Q13164); experiment: ActivX kinase probe assay (human PBMC); type: binding; settings: Erk5, read-out: percent inhibition
FER = FER (Homo sapiens (Human), UniProt P16591); experiment: ActivX kinase probe assay (human PBMC); type: binding; settings: FER, read-out: percent inhibition
HPK1 = HPK1 (Homo sapiens (Human), UniProt Q92918); experiment: ActivX kinase probe assay (human PBMC); type: binding; settings: HPK1, read-out: percent inhibition
IKKa = IKKa (Homo sapiens (Human), UniProt O15111); experiment: ActivX kinase probe assay (human PBMC); type: binding; settings: IKKa, read-out: percent inhibition
Sequence of IKKa (O15111 whole entry): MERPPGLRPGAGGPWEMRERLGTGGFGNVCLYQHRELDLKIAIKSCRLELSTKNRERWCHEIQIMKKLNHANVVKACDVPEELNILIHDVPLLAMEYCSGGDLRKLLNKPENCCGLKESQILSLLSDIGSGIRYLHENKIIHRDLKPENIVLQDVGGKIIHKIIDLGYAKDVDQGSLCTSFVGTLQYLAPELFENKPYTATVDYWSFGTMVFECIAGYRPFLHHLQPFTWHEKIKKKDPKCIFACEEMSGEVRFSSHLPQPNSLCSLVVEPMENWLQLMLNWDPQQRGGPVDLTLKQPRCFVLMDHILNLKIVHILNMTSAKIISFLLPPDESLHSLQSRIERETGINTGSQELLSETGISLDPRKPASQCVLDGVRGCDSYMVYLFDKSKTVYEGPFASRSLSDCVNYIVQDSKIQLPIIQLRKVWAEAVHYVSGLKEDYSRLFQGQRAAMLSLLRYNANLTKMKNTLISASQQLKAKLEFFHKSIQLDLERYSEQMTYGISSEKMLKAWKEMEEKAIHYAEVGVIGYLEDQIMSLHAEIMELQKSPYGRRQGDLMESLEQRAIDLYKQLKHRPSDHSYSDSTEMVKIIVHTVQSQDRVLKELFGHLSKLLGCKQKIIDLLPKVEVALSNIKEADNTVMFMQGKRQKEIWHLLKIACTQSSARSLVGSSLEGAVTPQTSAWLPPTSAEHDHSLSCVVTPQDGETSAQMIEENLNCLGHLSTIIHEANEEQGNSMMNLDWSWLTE

IRAK1 = IRAK1 (Homo sapiens (Human), UniProt P51617); experiment: ActivX kinase probe assay (human PBMC); type: binding; settings: read-out: percent inhibition
Sequence of IRAK1 (P51617 whole entry): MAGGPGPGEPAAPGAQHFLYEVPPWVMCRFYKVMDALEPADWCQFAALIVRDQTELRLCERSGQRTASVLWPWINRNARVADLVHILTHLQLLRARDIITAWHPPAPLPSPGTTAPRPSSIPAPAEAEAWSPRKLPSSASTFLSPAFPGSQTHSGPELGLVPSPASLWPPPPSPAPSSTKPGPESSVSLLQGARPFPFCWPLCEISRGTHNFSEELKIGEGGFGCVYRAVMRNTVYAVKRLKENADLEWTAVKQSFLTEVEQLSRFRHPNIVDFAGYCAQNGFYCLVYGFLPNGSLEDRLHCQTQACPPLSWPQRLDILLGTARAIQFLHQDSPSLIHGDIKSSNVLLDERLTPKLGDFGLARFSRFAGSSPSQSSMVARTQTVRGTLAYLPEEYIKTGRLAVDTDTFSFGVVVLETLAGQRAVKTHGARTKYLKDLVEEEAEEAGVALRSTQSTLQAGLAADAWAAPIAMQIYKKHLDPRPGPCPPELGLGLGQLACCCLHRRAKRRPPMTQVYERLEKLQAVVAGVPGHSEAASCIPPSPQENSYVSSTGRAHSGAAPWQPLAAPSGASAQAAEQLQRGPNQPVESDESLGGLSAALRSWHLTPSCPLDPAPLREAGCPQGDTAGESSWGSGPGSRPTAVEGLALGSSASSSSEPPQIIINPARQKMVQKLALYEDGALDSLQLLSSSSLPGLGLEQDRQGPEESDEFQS

IRAK4 = IRAK4 (Homo sapiens (Human), UniProt Q9NWZ3); experiment: ActivX kinase probe assay (human PBMC); type: binding; settings: IRAK4, read-out: percent inhibition
IRE1 = IRE1 (Homo sapiens (Human), UniProt O75460); experiment: ActivX kinase probe assay (human PBMC); type: binding; settings: IRE1, read-out: percent inhibition
Sequence of IRE1 (O75460 19-977): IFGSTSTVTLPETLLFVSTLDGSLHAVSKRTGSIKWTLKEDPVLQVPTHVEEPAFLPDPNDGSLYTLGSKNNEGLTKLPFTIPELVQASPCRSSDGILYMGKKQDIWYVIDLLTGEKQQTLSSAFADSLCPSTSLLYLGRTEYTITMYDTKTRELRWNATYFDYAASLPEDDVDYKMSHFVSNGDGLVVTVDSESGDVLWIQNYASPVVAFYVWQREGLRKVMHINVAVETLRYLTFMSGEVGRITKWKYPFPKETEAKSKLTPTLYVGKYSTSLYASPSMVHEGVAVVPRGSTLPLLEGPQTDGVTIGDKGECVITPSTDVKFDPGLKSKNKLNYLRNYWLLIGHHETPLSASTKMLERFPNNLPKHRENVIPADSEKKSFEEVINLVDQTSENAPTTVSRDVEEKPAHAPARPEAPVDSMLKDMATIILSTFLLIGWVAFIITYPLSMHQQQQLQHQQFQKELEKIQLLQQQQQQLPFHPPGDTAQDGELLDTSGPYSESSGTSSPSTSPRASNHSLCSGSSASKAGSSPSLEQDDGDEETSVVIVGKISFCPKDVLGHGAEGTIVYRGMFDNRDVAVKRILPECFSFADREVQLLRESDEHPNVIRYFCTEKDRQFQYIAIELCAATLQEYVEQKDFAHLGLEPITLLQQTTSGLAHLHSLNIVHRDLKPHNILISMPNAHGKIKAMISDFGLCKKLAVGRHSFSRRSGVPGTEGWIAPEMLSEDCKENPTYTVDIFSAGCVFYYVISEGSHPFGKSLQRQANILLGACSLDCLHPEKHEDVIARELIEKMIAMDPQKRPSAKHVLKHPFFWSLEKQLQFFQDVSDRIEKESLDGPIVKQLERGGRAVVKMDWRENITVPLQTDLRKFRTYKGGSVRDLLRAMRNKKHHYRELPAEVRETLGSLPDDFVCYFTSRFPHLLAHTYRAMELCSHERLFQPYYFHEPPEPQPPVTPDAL

JAK1 = JAK1 (Homo sapiens (Human), UniProt P23458); experiment: ActivX kinase probe assay (human PBMC); type: binding; settings: JAK1, read-out: percent inhibition
MAP2K4 = MAP2K4 (Homo sapiens (Human), UniProt P45985); experiment: ActivX kinase probe assay (human PBMC); type: binding; settings: MAP2K4, read-out: percent inhibition
MAP3K1 = MAP3K1 (Homo sapiens (Human), UniProt Q13233); experiment: ActivX kinase probe assay (human PBMC); type: binding; settings: MAP3K1, read-out: percent inhibition
MARK2 = MARK2 (Homo sapiens (Human), UniProt Q7KZI7); experiment: ActivX kinase probe assay (human PBMC); type: binding; settings: MARK2, read-out: percent inhibition
MST1 = MST1 (Homo sapiens (Human), UniProt Q13043); experiment: ActivX kinase probe assay (human PBMC); type: binding; settings: read-out: percent inhibition
MST1, MST2 = experiment: ActivX kinase probe assay (human PBMC); type: binding
MST2 = MST2 (Homo sapiens (Human), UniProt Q13188); experiment: ActivX kinase probe assay (human PBMC); type: binding; settings: read-out: percent inhibition
NuaK2 = NuaK2 (Homo sapiens (Human), UniProt Q9H093); experiment: ActivX kinase probe assay (human PBMC); type: binding; settings: NuaK2, read-out: percent inhibition
PAN3 = PAN3 (Homo sapiens (Human), UniProt Q58A45); experiment: ActivX kinase probe assay (human PBMC); type: binding; settings: PAN3, read-out: percent inhibition
PCTAIRE2, PCTAIRE3 = experiment: ActivX kinase probe assay (human PBMC); type: binding
PIK3C3 = PIK3C3 (Homo sapiens (Human), UniProt Q8NEB9); experiment: ActivX kinase probe assay (human PBMC); type: binding; settings: PIK3C3, read-out: percent inhibition
PIK3CD = PIK3CD (Homo sapiens (Human), UniProt O00329); experiment: ActivX kinase probe assay (human PBMC); type: binding; settings: PIK3CD, read-out: percent inhibition
PIP4K2C = PIP4K2C (Homo sapiens (Human), UniProt Q8TBX8); experiment: ActivX kinase probe assay (human PBMC); type: binding; settings: read-out: percent inhibition
Sequence of PIP4K2C (Q8TBX8 whole entry, the tested form may be a part): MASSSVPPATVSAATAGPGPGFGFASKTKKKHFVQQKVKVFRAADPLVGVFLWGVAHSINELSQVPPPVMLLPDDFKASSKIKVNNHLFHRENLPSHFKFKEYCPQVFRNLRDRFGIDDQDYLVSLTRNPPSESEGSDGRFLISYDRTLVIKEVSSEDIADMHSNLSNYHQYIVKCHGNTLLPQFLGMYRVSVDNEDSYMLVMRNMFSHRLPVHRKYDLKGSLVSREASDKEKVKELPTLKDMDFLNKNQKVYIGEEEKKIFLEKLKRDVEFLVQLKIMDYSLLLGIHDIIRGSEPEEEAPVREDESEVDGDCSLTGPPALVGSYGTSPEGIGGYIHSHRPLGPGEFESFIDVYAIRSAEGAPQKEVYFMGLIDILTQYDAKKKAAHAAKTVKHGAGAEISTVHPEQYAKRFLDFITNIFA

RSK1 domain1 = RSK1 domain1 (Homo sapiens (Human), UniProt Q15418); experiment: ActivX kinase probe assay (human PBMC); type: binding; settings: RSK1 domain1, read-out: percent inhibition
Sequence of RSK1 domain1 (Q15418 whole entry, the tested form may be a part): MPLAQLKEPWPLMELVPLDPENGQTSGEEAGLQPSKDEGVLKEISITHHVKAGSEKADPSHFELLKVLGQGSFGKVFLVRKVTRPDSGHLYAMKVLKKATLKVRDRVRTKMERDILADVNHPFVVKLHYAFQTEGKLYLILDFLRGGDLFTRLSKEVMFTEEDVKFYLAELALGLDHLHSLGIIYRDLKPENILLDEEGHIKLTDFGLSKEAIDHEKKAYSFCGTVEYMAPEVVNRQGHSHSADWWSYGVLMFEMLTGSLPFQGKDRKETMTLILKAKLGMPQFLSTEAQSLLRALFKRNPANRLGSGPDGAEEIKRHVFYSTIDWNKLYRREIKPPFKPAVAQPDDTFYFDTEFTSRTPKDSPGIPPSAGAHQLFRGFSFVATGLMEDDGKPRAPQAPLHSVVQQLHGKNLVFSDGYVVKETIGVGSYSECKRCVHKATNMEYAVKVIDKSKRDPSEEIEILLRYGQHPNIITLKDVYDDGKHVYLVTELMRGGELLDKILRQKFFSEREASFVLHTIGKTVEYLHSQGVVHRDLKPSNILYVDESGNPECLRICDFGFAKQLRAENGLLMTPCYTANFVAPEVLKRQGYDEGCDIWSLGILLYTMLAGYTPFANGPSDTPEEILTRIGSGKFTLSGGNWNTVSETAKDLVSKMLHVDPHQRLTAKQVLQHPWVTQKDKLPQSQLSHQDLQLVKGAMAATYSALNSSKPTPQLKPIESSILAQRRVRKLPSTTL

RSK1 domain2 = RSK1 domain2 (Homo sapiens (Human), UniProt Q15418); experiment: ActivX kinase probe assay (human PBMC); type: binding; settings: RSK1 domain2, read-out: percent inhibition
Sequence of RSK1 domain2 (Q15418 whole entry, the tested form may be a part): as above

RSK2 domain2 = RSK2 domain2 (Homo sapiens (Human), UniProt P51812); experiment: ActivX kinase probe assay (human PBMC); type: binding; settings: RSK2 domain2, read-out: percent inhibition
SRC = SRC (Homo sapiens (Human), UniProt P12931); experiment: ActivX kinase probe assay (human PBMC); type: binding; settings: SRC, read-out: percent inhibition
Sequence of SRC (P12931 whole entry, looked up): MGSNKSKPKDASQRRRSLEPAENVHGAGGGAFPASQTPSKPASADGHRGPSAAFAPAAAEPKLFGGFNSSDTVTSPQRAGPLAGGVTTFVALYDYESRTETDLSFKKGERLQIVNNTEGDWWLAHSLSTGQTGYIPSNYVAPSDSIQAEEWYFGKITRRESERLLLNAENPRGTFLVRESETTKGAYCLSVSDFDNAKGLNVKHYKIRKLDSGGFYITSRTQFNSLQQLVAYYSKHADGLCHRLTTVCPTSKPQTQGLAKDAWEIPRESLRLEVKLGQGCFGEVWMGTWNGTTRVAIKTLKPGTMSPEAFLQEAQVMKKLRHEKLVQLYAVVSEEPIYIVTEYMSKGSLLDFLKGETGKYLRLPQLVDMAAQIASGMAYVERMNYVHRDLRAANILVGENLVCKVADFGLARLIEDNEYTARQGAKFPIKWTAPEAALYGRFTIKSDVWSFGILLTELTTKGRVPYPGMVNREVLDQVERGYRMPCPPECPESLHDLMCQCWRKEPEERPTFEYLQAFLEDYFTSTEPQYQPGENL

TLK1 = TLK1 (Homo sapiens (Human), UniProt Q9UKI8); experiment: ActivX kinase probe assay (human PBMC); type: binding; settings: TLK1, read-out: percent inhibition
Sequence of TLK1 (Q9UKI8 whole entry): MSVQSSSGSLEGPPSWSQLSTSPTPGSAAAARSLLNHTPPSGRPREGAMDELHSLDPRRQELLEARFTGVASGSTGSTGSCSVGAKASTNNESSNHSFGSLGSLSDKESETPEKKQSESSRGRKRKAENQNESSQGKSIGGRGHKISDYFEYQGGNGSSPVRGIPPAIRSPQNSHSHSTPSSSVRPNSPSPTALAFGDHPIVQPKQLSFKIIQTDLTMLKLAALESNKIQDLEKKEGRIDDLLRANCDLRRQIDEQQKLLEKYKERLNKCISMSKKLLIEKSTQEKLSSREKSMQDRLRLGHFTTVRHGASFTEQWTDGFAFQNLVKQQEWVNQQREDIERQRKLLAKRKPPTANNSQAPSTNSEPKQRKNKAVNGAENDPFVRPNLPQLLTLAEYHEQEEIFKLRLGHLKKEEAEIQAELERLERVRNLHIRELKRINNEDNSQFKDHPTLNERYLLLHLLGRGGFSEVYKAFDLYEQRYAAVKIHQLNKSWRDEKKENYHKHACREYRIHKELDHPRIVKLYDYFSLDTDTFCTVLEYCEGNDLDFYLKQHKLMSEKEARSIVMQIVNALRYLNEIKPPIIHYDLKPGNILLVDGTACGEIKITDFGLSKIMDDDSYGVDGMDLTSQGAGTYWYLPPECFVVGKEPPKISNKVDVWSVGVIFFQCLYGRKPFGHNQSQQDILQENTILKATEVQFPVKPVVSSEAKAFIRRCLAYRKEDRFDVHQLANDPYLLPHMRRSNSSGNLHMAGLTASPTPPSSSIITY

## Cn1cc(-c2c[nH]c3ncnc(N4CCOCC4)c23)cn1 [Example 1, 5-(1-Methyl-1H-pyrazol-4-yl)-4-(morpholin-4-yl)-7H-pyrrolo[2,3-d]pyrimidine]
[1]
  IC50: 13 nM
AKT1; 0.1 μM
  inhibition at 0.1 µM: 11.3%
AKT1; 1 μM
  inhibition at 1 µM: 18.8%
BTK; 0.1 μM
  inhibition at 0.1 µM: 8.7%
BTK; 1 μM
  inhibition at 1 µM: 3.7%
DNAPK; 0.1 μM
  inhibition at 0.1 µM: -4.4%
DNAPK; 1 μM
  inhibition at 1 µM: -30%
Erk5; 0.1 μM
  inhibition at 0.1 µM: -32.8%
Erk5; 1 μM
  inhibition at 1 µM: -41.9%
FER; 0.1 μM
  inhibition at 0.1 µM: -7.3%
FER; 1 μM
  inhibition at 1 µM: -17.9%
HPK1; 0.1 μM
  inhibition at 0.1 µM: -9.7%
HPK1; 1 μM
  inhibition at 1 µM: -14.9%
IKKa; 0.1 μM
  inhibition at 0.1 µM: -20%
IKKa; 1 μM
  inhibition at 1 µM: -40.5%
IRAK1; IRAK1, 1 μM
  inhibition at 1 µM: -9.1%
IRAK1
  inhibition at 0.1 µM: -13.8%
IRAK4; 0.1 μM
  inhibition at 0.1 µM: 17.7%
IRAK4; 1 μM
  inhibition at 1 µM: 34.7%
IRE1; 0.1 μM
  inhibition at 0.1 µM: -1.3%
IRE1; 1 μM
  inhibition at 1 µM: -8%
JAK1; 0.1 μM
  inhibition at 0.1 µM: 15%
JAK1; 1 μM
  inhibition at 1 µM: 54.2%
MAP2K4; 0.1 μM
  inhibition at 0.1 µM: 10.1%
MAP2K4; 1 μM
  inhibition at 1 µM: 9.6%
MAP3K1; 0.1 μM
  inhibition at 0.1 µM: -9.4%
MAP3K1; 1 μM
  inhibition at 1 µM: 11.9%
MARK2; 0.1 μM
  inhibition at 0.1 µM: 10.1%
MARK2; 1 μM
  inhibition at 1 µM: 41.6%
MST1; 0.1 μM
  inhibition at 0.1 µM: 13.2%
MST1; 1 μM
  inhibition at 1 µM: 50.8%
MST1, MST2; 0.1 μM
  percent inhibition: −14.5%
MST1, MST2; 1 μM
  percent inhibition: 24.8%
MST2; 0.1 μM
  inhibition at 0.1 µM: 10.1%
MST2; 1 μM
  inhibition at 1 µM: 49.4%
NuaK2; 0.1 μM
  inhibition at 0.1 µM: 3.6%
NuaK2; 1 μM
  inhibition at 1 µM: 8.9%
PAN3; 0.1 μM
  inhibition at 0.1 µM: 0.6%
PAN3; 1 μM
  inhibition at 1 µM: 0.8%
PCTAIRE2, PCTAIRE3; 0.1 μM
  percent inhibition: 7.5%
PCTAIRE2, PCTAIRE3; 1 μM
  percent inhibition: −2.5%
PIK3C3; 0.1 μM
  inhibition at 0.1 µM: 23.3%
PIK3C3; 1 μM
  inhibition at 1 µM: 4.8%
PIK3CD; 0.1 μM
  inhibition at 0.1 µM: -102%
PIK3CD; 1 μM
  inhibition at 1 µM: -65.4%
PIP4K2C; PIP4K2C (first line of two)
  inhibition at 0.1 µM: 1.4%
  inhibition at 1 µM: -1.4%
PIP4K2C; PIP4K2C (second line of two)
  inhibition at 0.1 µM: -48%
  inhibition at 1 µM: 0.9%
RSK1 domain1; 0.1 μM
  inhibition at 0.1 µM: 16.3%
RSK1 domain1; 1 μM
  inhibition at 1 µM: 59.8%
RSK1 domain2; 0.1 μM
  inhibition at 0.1 µM: -12.7%
RSK1 domain2; 1 μM
  inhibition at 1 µM: 18.1%
RSK2 domain2; 0.1 μM
  inhibition at 0.1 µM: 0.6%
RSK2 domain2; 1 μM
  inhibition at 1 µM: 9.1%
SRC; 0.1 μM
  inhibition at 0.1 µM: 1.5%
SRC; 1 μM
  inhibition at 1 µM: 9.7%
TLK1; 0.1 μM
  inhibition at 0.1 µM: 7.8%
TLK1; 1 μM
  inhibition at 1 µM: 2.7%
